Patent US20140005163A1 (NOVARTIS AG, priority 2010, published 2014)
Values after ≈ are worked out from the molar mass of the structure shown.

Key:
[1] = test system: PKB Ser473 phosphorylation in Rat1-myr-HA-p110 alpha cells; assay: Reverse protein array assay, PKB Ser473 phosphorylation in Rat1-myr-p110 alpha cells; assay type: cell-based; conditions: 0.5 h, pAkt Ser473, 30 minutes compound incubation, read-out: p-PKB IC50
Outline: (§1)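 Cells: Rat1-myr-HA-p110 alpha/beta/delta, seeded ≥20 h. Lysis on ice 10 min; reverse-phase protein array, 4 lysate dilutions; fluorescence read, relative intensity.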

Solubility at pH 6.8 = assay type: physicochemical; conditions: pH 6.8, aqueous buffer, thermodynamic from solid; read-out: solubility
Outline: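 Solubility was measured at pH 6.8 following the cited Zhou et al. (2007) procedure.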

[2] = test system: PKB Ser473 phosphorylation in Rat1-myr-HA-p110 delta cells; assay: Reverse protein array assay, PKB Ser473 phosphorylation in Rat1-myr-p110 delta cells; assay type: cell-based; conditions: read-out: p-PKB IC50
Outline: as §1

Structure (SMILES)	IC50 [1]	solubility (Solubility at pH 6.8)	IC50 [2]
Cc1nn(C)cc1-n1c(=O)n(C)c2cnc3ccc(-c4cncc(C(C)O)c4)cc3c21 (racemic) [Example 217, (rac)-1-(1,3-Dimethyl-1H-pyrazol-4-yl)-8-[5-(1-hydroxy-ethyl)-pyridin-3-yl]-3-methyl-1,3-dihydro-imidazo[4,5-c]quinolin-2-one]	108 nM	414 µg/mL (≈ 999 µM)	249 nM
COc1ccc(-c2ccc3ncc4c(c3c2)n(-c2ccnn2C)c(=O)n4C)cn1 [Example 2.2, 8-(6-Methoxy-pyridin-3-yl)-3-methyl-1-(2-methyl-2H-pyrazol-3-yl)-1,3-dihydro-imidazo[4,5-c]quinolin-2-one]	159 nM	4 µg/mL (≈ 10.4 µM)	541 nM
Cc1nn(CC(=O)N(C)C)c(C)c1-n1c(=O)n(C)c2cnc3ccc(-c4ccc(-n5cccn5)cc4)cc3c21 [Example 51.4, 2-{3,5-Dimethyl-4-[3-methyl-2-oxo-8-(4-pyrazol-1-yl-phenyl)-2,3-dihydro-imidazo[4,5-c]quinolin-1-yl]pyrazol-1-yl}-N,N-dimethyl-acetamide]	14 nM	11 µg/mL (≈ 21.1 µM)	223 nM
Cc1ncc(-c2ccc3ncc4c(c3c2)n(-c2cn(C)nc2C)c(=O)n4C)cc1N(C)S(C)(=O)=O [Example 75, N-{5-[1-(1,3-Dimethyl-1H-pyrazol-4-yl)-3-methyl-2-oxo-2,3-dihydro-1H-imidazo[4,5-c]quinolin-8-yl]-2-methyl-pyridin-3-yl}-N-methyl-methanesulfonamide]	206 nM	35 µg/mL (≈ 71.2 µM)	177 nM
CCNc1cc(-c2ccc3ncc4c(c3c2)n(-c2c(C)nn(CCOC)c2C)c(=O)n4C)cnc1C [Example 87.4, 8-(5-Ethylamino-6-methyl-pyridin-3-yl)-1-[1-(2-methoxy-ethyl)-3,5-dimethyl-1H-pyrazol-4-yl]-3-methyl-1,3-dihydro-imidazo[4,5-c]quinolin-2-one]	33 nM	> 486 µg/mL	91 nM
Cc1ncc(-c2ccc3ncc4c(c3c2)n(-c2cn(C)nc2C)c(=O)n4C)cc1N [Example 88.2, 8-(5-Amino-6-methyl-pyridin-3-yl)-1-(1,3-dimethyl-1H-pyrazol-4-yl)-3-methyl-1,3-dihydro-imidazo[4,5-c]quinolin-2-one]	24 nM	136 µg/mL (≈ 340 µM)	59 nM
CCNc1cncc(-c2ccc3ncc4c(c3c2)n(-c2cn(C)nc2C)c(=O)n4C)c1 [Example 122, 1-(1,3-Dimethyl-1H-pyrazol-4-yl)-8-(5-ethylamino-pyridin-3-yl)-3-methyl-1,3-dihydro-imidazo[4,5-c]quinolin-2-one]	< 5 nM	5 µg/mL (≈ 12.1 µM)	56 nM
CCOc1ccc(-c2ccc3ncc4c(c3c2)n(-c2cn(CCOC)nc2C)c(=O)n4C)cn1 [Example 131, 8-(6-Ethoxy-pyridin-3-yl)-1-[1-(2-methoxy-ethyl)-3-methyl-1H-pyrazol-4-yl]-3-methyl-1,3-dihydro-imidazo[4,5-c]quinolin-2-one]	41 nM	4 µg/mL (≈ 8.72 µM)	127 nM
Cc1nn(C)cc1-n1c(=O)n(C)c2cnc3ccc(-c4cnc(Cl)c(N)c4)cc3c21 [Example 152.2, 8-(5-Amino-6-chloro-pyridin-3-yl)-1-(1,3-dimethyl-1H-pyrazol-4-yl)-3-methyl-1,3-dihydro-imidazo[4,5-c]quinolin-2-one]	< 5 nM	4 µg/mL (≈ 9.53 µM)	33 nM
CCNc1cc(-c2ccc3ncc4c(c3c2)n(-c2cn(C)nc2C)c(=O)n4C)cnc1COC [Example 156, 1-(1,3-Dimethyl-1H-pyrazol-4-yl)-8-(5-ethylamino-6-methoxymethyl-pyridin-3-yl)-3-methyl-1,3-dihydro-imidazo[4,5-c]quinolin-2-one]	10 nM	> 458 µg/mL	12 nM
CNc1cc(-c2ccc3ncc4c(c3c2)n(-c2cn(C)nc2C)c(=O)n4C)cnc1CO [Example 158.1, 1-(1,3-Dimethyl-1H-pyrazol-4-yl)-8-(6-hydroxymethyl-5-methylamino-pyridin-3-yl)-3-methyl-1,3-dihydro-imidazo[4,5-c]quinolin-2-one]	6 nM	> 429 µg/mL	45 nM
CNc1cc(-c2ccc3ncc4c(c3c2)n(-c2cn(C)nc2Cl)c(=O)n4C)cnc1COC [Example 160.1, 1-(3-Chloro-1-methyl-1H-pyrazol-4-yl)-8-(6-methoxymethyl-5-methylamino-pyridin-3-yl)-3-methyl-1,3-dihydro-imidazo[4,5-c]quinolin-2-one]	< 5 nM	32 µg/mL (≈ 69 µM)	10 nM
CNc1ncc(-c2ccc3ncc4c(c3c2)n(-c2cn(C(C)C)nc2C)c(=O)n4C)cc1CO [Example 171, 8-(5-Hydroxymethyl-6-methylamino-pyridin-3-yl)-1-(1-isopropyl-3-methyl-1H-pyrazol-4-yl)-3-methyl-1,3-dihydro-imidazo[4,5-c]quinolin-2-one]	9 nM	5 µg/mL (≈ 10.9 µM)	41 nM
Cc1nn(C)cc1-n1c(=O)n(C)c2cnc3ccc(-c4cncc(NC(C)C)c4)cc3c21 [Example 177.1, 1-(1,3-Dimethyl-1H-pyrazol-4-yl)-8-(5-isopropylamino-pyridin-3-yl)-3-methyl-1,3-dihydro-imidazo[4,5-c]quinolin-2-one]	9 nM	169 µg/mL (≈ 395 µM)	39 nM
CCn1cc(-n2c(=O)n(C)c3cnc4ccc(-c5cncc(NC)c5)cc4c32)c(C)n1 [Example 180.1, 1-(1-Ethyl-3-methyl-1H-pyrazol-4-yl)-3-methyl-8-(5-methylamino-pyridin-3-yl)-1,3-dihydro-imidazo[4,5-c]quinolin-2-one]	< 5 nM	11 µg/mL (≈ 26.6 µM)	41 nM
Cc1nn(C)cc1-n1c(=O)n(C)c2cnc3ccc(-c4cncc(OC(CF)CF)c4)cc3c21 [Example 182, 1-(1,3-Dimethyl-1H-pyrazol-4-yl)-8-[5-(2-fluoro-1-fluoromethyl-ethoxy)-pyridin-3-yl]-3-methyl-1,3-dihydro-imidazo[4,5-c]quinolin-2-one]	15 nM	56 µg/mL (≈ 121 µM)	56 nM
COc1cc(-c2ccc3ncc4c(c3c2)n(-c2cn(C(C)C)nc2C)c(=O)n4C)cnc1CO [Example 194.1, 8-(6-Hydroxymethyl-5-methoxy-pyridin-3-yl)-1-(1-isopropyl-3-methyl-1H-pyrazol-4-yl)-3-methyl-1,3-dihydro-imidazo[4,5-c]quinolin-2-one]	44 nM	129 µg/mL (≈ 281 µM)	145 nM
COc1cc(-c2ccc3ncc4c(c3c2)n(-c2cn(C)nc2Cl)c(=O)n4C)cnc1CO [Example 194.2, 1-(3-chloro-1-methyl-1H-pyrazol-4-yl)-8-(6-hydroxymethyl-5-methoxy-pyridin-3-yl)-3-methyl-1,3-dihydro-imidazo[4,5-c]quinolin-2-one]	9 nM	94 µg/mL (≈ 208 µM)	27 nM
CCOCc1ncc(-c2ccc3ncc4c(c3c2)n(-c2cn(C)nc2Cl)c(=O)n4C)cc1OC [Example 196.1, 1-(3-Chloro-1-methyl-1H-pyrazol-4-yl)-8-(6-ethoxymethyl-5-methoxy-pyridin-3-yl)-3-methyl-1,3-dihydro-imidazo[4,5-c]quinolin-2-one]	45 nM	44 µg/mL (≈ 91.9 µM)	58 nM
COc1cc(-c2ccc3ncc4c(c3c2)n(-c2cn(CCO)nc2C)c(=O)n4C)cnc1C [Example 211.1, 1-[1-(2-Hydroxy-ethyl)-3-methyl-1H-pyrazol-4-yl]-8-(5-methoxy-6-methyl-pyridin-3-yl)-3-methyl-1,3-dihydro-imidazo[4,5-c]quinolin-2-one]	11 nM	3 µg/mL (≈ 6.75 µM)	211 nM
CC(=O)Nc1cc(-c2ccc3ncc4c(c3c2)n(-c2cn(C)nc2C)c(=O)n4C)cnc1Cl [Example 222, N-{2-Chloro-5-[1-(1,3-dimethyl-1H-pyrazol-4-yl)-3-methyl-2-oxo-2,3-dihydro-1H-imidazo[4,5-c]quinolin-8-yl]-pyridin-3-yl}-acetamide]	55 nM		68 nM
Cc1nn(C)cc1-n1c(=O)n(C)c2cnc3ccc(-c4cnc(Cl)c(NS(C)(=O)=O)c4)cc3c21 [Example 223, N-{2-Chloro-5-[1-(1,3-dimethyl-1H-pyrazol-4-yl)-3-methyl-2-oxo-2,3-dihydro-1H-imidazo[4,5-c]quinolin-8-yl]-pyridin-3-yl}-methanesulfonamide]	11 nM		103 nM
Cc1nn(C)cc1-n1c(=O)n(C)c2cnc3ccc(-c4cnc(N)c(C(=O)NC(C)C)c4)cc3c21 [Example 225, 2-Amino-5-[1-(1,3-dimethyl-1H-pyrazol-4-yl)-3-methyl-2-oxo-2,3-dihydro-1H-imidazo[4,5-c]quinolin-8-yl]-N-isopropyl-nicotinamide]	80 nM		69 nM
COc1ncc(-c2ccc3ncc4c(c3c2)n(-c2cn(C(C)C)nc2C)c(=O)n4C)c(OC)n1 [Example 234.3, 8-(2,4-Dimethoxy-pyrimidin-5-yl)-1-(1-isopropyl-3-methyl-1H-pyrazol-4-yl)-3-methyl-1,3-dihydro-imidazo[4,5-c]quinolin-2-one]	15 nM	13 µg/mL (≈ 28.3 µM)	30 nM
Cc1nn(C)cc1-n1c(=O)n(C)c2cnc3ccc(-c4cnc(CO)c(Cl)c4)cc3c21 [Example 238, 8-(5-Chloro-6-hydroxymethyl-pyridin-3-yl)-1-(1,3-dimethyl-1H-pyrazol-4-yl)-3-methyl-1,3-dihydro-imidazo[4,5-c]quinolin-2-one]	32 nM	8 µg/mL (≈ 18.4 µM)	327 nM
